Laboratory results: PubChem BioAssay AID1918952 (Molecular Pharmacology Branch, DTP, NCI, 2023)

Test system: LG0703-F948-PDC complex spheroid viability
Assay: Anticancer human tumor LG0703-F948-PDC patient-derived lung adenocarcinoma cell line growth inhibition
Conditions: for IC50: curve of first compound; for viability, T/C: stronger effect = lower value
Procedure, shortened: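 Drug combinations with the LSD1 inhibitor iadademstat tested on tumor cells co-cultured as spheroids with endothelial cells and mesenchymal stem cells. Concentrations descended in half-log increments from clinical Cmax or 10 microM.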
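Note: spheroids exposed to agents for seven days before readout.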
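Throughout, for viability, T/C: 100% = DMSO vehicle control wells as normalization base.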

CC1(C)CCC(CN2CCN(c3ccc(C(=O)NS(=O)(=O)c4ccc(NCC5CCOCC5)c([N+](=O)[O-])c4)c(Oc4cnc5[nH]ccc5c4)c3)CC2)=C(c2ccc(Cl)cc2)C1 + NC1CCC(NC2CC2c2ccccc2)CC1
IC50 (second compound 0.1 µM): 2.38 µM
IC50 (second compound 0.316 µM): 2.18 µM
IC50 (second compound 1 µM): 2.55 µM
IC50 (second compound 3.16 µM): 2.63 µM
IC50 (second compound 10 µM): 2.36 µM
viability, T/C (second compound 0.1 µM, first compound 0.0316 µM): 107%
viability, T/C (second compound 0.1 µM, first compound 0.1 µM): 90.9%
viability, T/C (second compound 0.1 µM, first compound 0.316 µM): 85.2%
viability, T/C (second compound 0.1 µM, first compound 1 µM): 99.4%
viability, T/C (second compound 0.1 µM, first compound 3.16 µM): 34.9%
viability, T/C (second compound 0.1 µM, first compound 10 µM): 2.77%
viability, T/C (second compound 0.316 µM, first compound 0.0316 µM): 97.3%
viability, T/C (second compound 0.316 µM, first compound 0.1 µM): 99.2%
viability, T/C (second compound 0.316 µM, first compound 0.316 µM): 102%
viability, T/C (second compound 0.316 µM, first compound 1 µM): 112%
viability, T/C (second compound 0.316 µM, first compound 3.16 µM): 24.9%
viability, T/C (second compound 0.316 µM, first compound 10 µM): 2.76%
viability, T/C (second compound 1 µM, first compound 0.0316 µM): 100%
viability, T/C (second compound 1 µM, first compound 0.1 µM): 119%
viability, T/C (second compound 1 µM, first compound 0.316 µM): 117%
viability, T/C (second compound 1 µM, first compound 1 µM): 103%
viability, T/C (second compound 1 µM, first compound 3.16 µM): 37.8%
viability, T/C (second compound 1 µM, first compound 10 µM): 2.92%
viability, T/C (second compound 3.16 µM, first compound 0.0316 µM): 126%
viability, T/C (second compound 3.16 µM, first compound 0.1 µM): 119%
viability, T/C (second compound 3.16 µM, first compound 0.316 µM): 135%
viability, T/C (second compound 3.16 µM, first compound 1 µM): 118%
viability, T/C (second compound 3.16 µM, first compound 3.16 µM): 36.9%
viability, T/C (second compound 3.16 µM, first compound 10 µM): 2.37%
viability, T/C (second compound 10 µM, first compound 0.0316 µM): 112%
viability, T/C (second compound 10 µM, first compound 0.1 µM): 114%
viability, T/C (second compound 10 µM, first compound 0.316 µM): 104%
viability, T/C (second compound 10 µM, first compound 1 µM): 99.1%
viability, T/C (second compound 10 µM, first compound 3.16 µM): 33.4%
viability, T/C (second compound 10 µM, first compound 10 µM): 2.95%

CCN(c1cc(-c2ccc(CN3CCOCC3)cc2)cc(C(=O)NCc2c(C)cc(C)[nH]c2=O)c1C)C1CCOCC1 + NC1CCC(NC2CC2c2ccccc2)CC1
IC50 (second compound 0.1 µM): > 3 µM
IC50 (second compound 0.316 µM): > 3 µM
IC50 (second compound 1 µM): > 3 µM
IC50 (second compound 3.16 µM): > 3 µM
IC50 (second compound 10 µM): > 3 µM
viability, T/C (second compound 0.1 µM, first compound 0.00949 µM): 105%
viability, T/C (second compound 0.1 µM, first compound 0.03 µM): 106%
viability, T/C (second compound 0.1 µM, first compound 0.0949 µM): 96.2%
viability, T/C (second compound 0.1 µM, first compound 0.3 µM): 108%
viability, T/C (second compound 0.1 µM, first compound 0.949 µM): 119%
viability, T/C (second compound 0.1 µM, first compound 3 µM): 128%
viability, T/C (second compound 0.316 µM, first compound 0.00949 µM): 107%
viability, T/C (second compound 0.316 µM, first compound 0.03 µM): 130%
viability, T/C (second compound 0.316 µM, first compound 0.0949 µM): 106%
viability, T/C (second compound 0.316 µM, first compound 0.3 µM): 112%
viability, T/C (second compound 0.316 µM, first compound 0.949 µM): 111%
viability, T/C (second compound 0.316 µM, first compound 3 µM): 112%
viability, T/C (second compound 1 µM, first compound 0.00949 µM): 128%
viability, T/C (second compound 1 µM, first compound 0.03 µM): 116%
viability, T/C (second compound 1 µM, first compound 0.0949 µM): 113%
viability, T/C (second compound 1 µM, first compound 0.3 µM): 133%
viability, T/C (second compound 1 µM, first compound 0.949 µM): 128%
viability, T/C (second compound 1 µM, first compound 3 µM): 127%
viability, T/C (second compound 3.16 µM, first compound 0.00949 µM): 124%
viability, T/C (second compound 3.16 µM, first compound 0.03 µM): 131%
viability, T/C (second compound 3.16 µM, first compound 0.0949 µM): 144%
viability, T/C (second compound 3.16 µM, first compound 0.3 µM): 138%
viability, T/C (second compound 3.16 µM, first compound 0.949 µM): 121%
viability, T/C (second compound 3.16 µM, first compound 3 µM): 141%
viability, T/C (second compound 10 µM, first compound 0.00949 µM): 120%
viability, T/C (second compound 10 µM, first compound 0.03 µM): 131%
viability, T/C (second compound 10 µM, first compound 0.0949 µM): 134%
viability, T/C (second compound 10 µM, first compound 0.3 µM): 118%
viability, T/C (second compound 10 µM, first compound 0.949 µM): 118%
viability, T/C (second compound 10 µM, first compound 3 µM): 105%
